According to patent US8889126B2, “Methods and compositions for treating neuropathies” (Washington University, priority 2004, dated 2014):
“Also recorded” adds a separate entry of the source. Like-named read-outs stand apart in the source and are kept apart here.

How the values were obtained:
DRG explant neurons = test: in vitro Wallerian degeneration assay: DRG explant cultures, axonal transection by removal of neuronal cell bodies; format: cell-based, mouse; conditions: for effect on NAD-dependent axonal protection (NDAP): neurons cultured in 1 mM NAD, Sirtinol 100 μM, 3AB 20 mM or lentiviral siRNA, assessed 12 to 72 hr after transection; for increase in intact neurites at 48 hours after transection: 1 mM exogenous application; for neurite protection from degeneration: 1 mM in culture media for 24 hours before neurite transection
Protocol: To identify the mechanism of delayed axonal degeneration mediated by the Wld^s protein, we employed an in-vitro Wallerian degeneration model. Primary DRG explant neurons were infected with lentivirus expressing the appropriate proteins, and axons were injured by either removal of the neuronal cell body (transection) or growth in vincristine (toxic).
Mouse DRG explants from E12.5 embryos were cultured in the presence of 1 nM nerve growth factor. Non-neuronal cells were removed from the cultures by adding 5-fluorouracil to the culture medium. Transection of neurites was performed at 10-20 DIV using an 18-gauge needle to remove the neuronal cell bodies. Incubation with β-nicotinamide adenine dinucleotide (Sigma) or Sirtinol (Calbiochem) was performed using conditions indicated in the text or figures.
Lentiviral expression vectors were generated using HEK293T cells as described above. For confirmation of lentivirus-derived protein expression, HEK293T cells were infected with lentivirus and cells were lysed 3 days after infection. These lysates were analyzed by immunoblot to using anti-His tag monoclonal antibody (Qiagen) to detect expression of the respective hexahistidine-tagged proteins. Lentiviral infection of DRG neurons was performed by incubating ˜10^6-10^7 pfu/ml virus with the DRG explant for 24 h beginning 3-7 days prior to axonal transection. The infected neurons were examined under an inverted fluorescent microscope to insure detectable lentivirus-mediated transgene expression in >95% of neurons.
Quantitative analysis of axonal degeneration was performed as previously described (Zhai, et al., Neuron 39:217-25, 2003). Briefly, the cultures were examined using phase contrast microscopy at the indicated times. Axons with a fragmented, non-refractile appearance were designated as “degenerated.” At each time point, at least 200 singly distinguishable axons were blindly scored from several randomly taken images of each culture. Each condition was tested in triplicate explants in each experiment. Results were obtained from 2-4 independent experiments for each condition. Statistical analysis was performed by Student's T test. For calculations of neurite-covered area, digitally captured images from quadruplicate samples of two independent experiments were analyzed using analysis 3.1 software (Soft Imaging System, Lakewood, Colo.).
Cell culture, in vitro axotomy, and quantification of axonal degeneration. Mouse DRG explants from E12.5 embryos were cultured in the DMEM containing 10% FCS and 1 nM nerve growth factor. Non-neuronal cells were removed from the cultures by adding 5-fluorouracil to the culture media. Transection of neurites was performed at 14-21 DIV using an 18-gauge needle to remove the neuronal cell bodies. Lentiviral expression vectors were generated. Lentiviral infection was performed 3-7 days prior to axonal transection for 24 hr. Quantitative analysis of neurite degeneration was performed.

[1] = tested on: optic nerve (retinal ganglion cell axons); test: optic nerve transection after intravitreal injection of NAD biosynthetic substrates, neurofilament immunoreactivity by Western blotting; format: in vivo, rat; conditions: 24 hours before transection, 4 days after transection
Protocol: Administration of NAD biosynthetic substrates and optic Nerve transection. Nam, NMN, NmR, or NAD was dissolved in PBS at the concentration of 100 mM or 1 M. Each of 5 μl solution was injected into left intravitreal component under the anesthesia at a rate of […]. The left optic nerve was transected at 24 hours after intravitreal injection and optic nerve was recovered at indicated time. Optic nerve tissue was homogenized in 100 μl of a buffer containing 100 mM tris-HCl (pH 6.8), 1 SDS, and 1 mM DTT. Fifty μg of protein for each sample was analyzed by the Western blotting using anti-neurofilament antibody 2H3 (Developmental Studies Hybridoma Center) and peroxidase-conjugated secondary antibody (Jackson ImmunoResearch). The degeneration rate was calculated from the ratio of the neurofilament immunoreactivity of transected vs. contralateral nerves.
Transection of optic nerve is an in vivo model which can be used to investigate mechanisms leading to Wallerian degeneration and following retinal ganglion cell (RGC) death observed in human diseases such as glaucoma. In the C57BL/Wlds mouse strain, optic nerve degeneration during Wallerian degeneration after axotomy is dramatically slowed. In addition, intravitreal injection is used for screening of compounds that protect RGC axon from degeneration in vivo and thus we can asses the axon protective effect of each NAD biosynthetic substrates in vivo by intraocular injection of compounds including NAD, NMN, NmR, and Nam. […] We initially injected 5 μl of 100 mM or 1 M NAD solution into left intravitreal compartment. After 24 hours incubation, left optic nerve was transected and control (right) and axotomized (left) optic nerve were collected at 3, 4, and 5 days after transection. Neurofilament immunoreactivity from the axotomized optic nerve was measured and normalized against the value obtained from the right side of the optic nerve.
FIG. 9 illustrates optic nerve transection after intravitreal injection of NAD biosynthetic substrates. In these experiments, NAD biosynthetic substrate NAD, NMN, NmR, or Nam was injected into the intravitreal compartment of a left rat eye and allowed to incorporate in retinal ganglion cells for 24 hours. The left optic nerve was then transected by eye enucleation. The right and left optic nerves were collected at 4 days after transection and analyzed by Western blotting. Optic nerves transected from mice without any treatment prior to axotomy served as negative controls. FIG. 9 presents quantitative analysis data, displaying percentage of remaining neurofilament immunoreactivity from transected optic nerve relative to non-transected controls. Data is presented as percent remaining immunoreactivity±S.D.

Nrk2 = test: NAD synthesis enzyme mRNA levels (qRT-PCR) in cultured DRG neurons treated with rotenone; format: cell-based, rat; conditions: 0.1 μM and 1 μM rotenone, RNA collected at 24 hours
Protocol: Real-time quantitative reverse transcription-PCR analysis. All the surgical procedures were performed according to National Institute of Health guidelines for care and use of laboratory animals at Washington University. For the expression analysis following nerve injury, the sciatic nerves of a C57BL/6 mouse was transected and L4 to L5. DRGs were collected at indicated time points and pooled to extract RNA. […] Total RNAs from pooled tissue sources or DRG explant cultures were prepared. First-strand cDNA templates were prepared from 1 μg of each RNA using standard methods. Two independent cDNA syntheses were performed for each RNA sample. Quantitative reverse transcription (RT)-PCR was performed by monitoring in real-time the increase in fluorescence of the SYBR-GREEN dye on a TaqMan 7700 Sequence Detection System (Applied Biosystems).
To investigate the expression of mammalian NAD biosynthetic enzymes in the nervous system, we performed quantitative RT-PCR using RNA from mouse brain, retina, spinal code, and DRG at age of E14, P0, P7, P14 and P21. […] We also analyzed expression of NAD synthetic enzymes during the axonal degeneration caused by neurotoxin in cultured rat DRG neuron. […] FIG. 6B illustrates neurite degeneration introduced by incubation DRG in 1 or 0.1 μM rotenone for indicated time and NAD synthesis enzyme mRNA levels were determined by qRT-PCR as described in the text.

| Structure (SMILES) | neurofilament immunoreactivity of axotomized optic nerve, of non-axotomized optic nerve ([1]; 5 μl of 100 mM intravitreal) | protection against axonal degeneration (summary statement of the in vitro study) (DRG explant neurons) | increase in intact neurites at 48 hours after transection (DRG explant neurons) | neurite protection from degeneration (DRG explant neurons) | further results |
| --- | --- | --- | --- | --- | --- |
| NC(=O)c1cccc(N)c1 [3AB, 3-aminobenzamide, reference compound] |  |  |  |  | effect on NAD-dependent axonal protection (NDAP) (DRG explant neurons): had no effect on NDAP |
| NC(=O)c1ccc[n+]([C@@H]2O[C@H](COP(=O)([O-])OP(=O)(O)OC[C@H]3O[C@@H](n4cnc5c(N)ncnc54)[C@H](O)[C@@H]3O)[C@@H](O)[C@H]2O)c1 [NAD, β-nicotinamide adenine dinucleotide] | 78±22% |  |  |  | neurofilament immunoreactivity of axotomized optic nerve, of non-axotomized optic nerve ([1]; 5 μl of 1 M intravitreal): 77±27% |
| NC(=O)c1ccc[n+]([C@@H]2O[C@H](COP(=O)([O-])O)[C@@H](O)[C@H]2O)c1 [NMN, nicotinamide mononucleotide] | 60±25% | have axon saving activity | comparable increase in intact neurites | successfully saved neurites from degeneration; also recorded: enough to protect axon from degeneration | neurite protection relative to exogenously applied NAD (quantitative analysis) (DRG explant neurons; 1 mM for 24 hours before transection): neurite protection to an extent similar to that achieved by exogenously applied NAD; protection against axonal degeneration (summary statement of the in vitro study) (DRG explant neurons; listed as nicotinamide mononucleotide): protected against axonal degeneration to a similar extent as did NAD |
| O=C(O)c1cccnc1 [Na, nicotinic acid] |  | did not |  | failed to save neurites |  |
| Nc1ncnc2c1ncn2[C@@H]1O[C@H](COP(=O)(O)OP(=O)(O)OC[C@H]2O[C@@H]([n+]3cccc(C(=O)O)c3)[C@H](O)[C@@H]2O)[C@@H](O)[C@H]1O [NaAD, nicotinic acid adenine dinucleotide] |  |  | less increase in intact neurites at 48 hours compared with NAD | slight protection |  |
| O=C(O)c1ccc[n+]([C@@H]2O[C@H](COP(=O)(O)O)[C@@H](O)[C@H]2O)c1 [NaMN, nicotinate mononucleotide] |  | protected against axonal degeneration to a similar extent as did NAD | comparable increase in intact neurites | saved neurites as well as NAD |  |
| NC(=O)c1cccnc1 [Nam, nicotinamide] | did not show any difference from the control animals | does not |  | had no effect | protection against axonal degeneration (summary statement of the in vitro study) (DRG explant neurons; listed as nicotinamide): did not |
| NC(=O)c1ccc[n+]([C@@H]2O[C@H](CO)[C@@H](O)[C@H]2O)c1 [NmR, nicotinamide riboside] | 72±19% | have axon saving activity | comparable increase in intact neurites | saved neurites as well as NAD; also recorded: enough to protect axon from degeneration | protection against axonal degeneration (summary statement of the in vitro study) (DRG explant neurons; listed as nicotinamide riboside): protected against axonal degeneration to a similar extent as did NAD |
| CC(NC(=O)c1ccccc1/N=C/c1c(O)ccc2ccccc12)c1ccccc1 (stereo not shown) [Sirtinol, reference compound] |  |  |  |  | effect on NAD-dependent axonal protection (NDAP) (DRG explant neurons): effectively blocked NDAP |
| Oc1ccc(C=Cc2cc(O)cc(O)c2)cc1 [resveratrol, reference compound] |  |  |  |  | axonal degradation after axotomy (DRG explant neurons; 10~100 μM, treated prior to axotomy): decrease in axonal degradation that was comparable to that obtained using NAD |
| C=C(C)[C@H]1Cc2c(ccc3c2O[C@@H]2COc4cc(OC)c(OC)cc4[C@@H]2C3=O)O1 [rotenone] |  |  |  |  | expression of Nrk2 (mRNA) (Nrk2): more than 6 folds |
